Reference: the NIST ThermoML archive (doi:10.1021/je030106k)
Numbers after ± are expanded uncertainties.

Settings: Liquid

vapor or sublimation pressure (273.15 K)	vapor or sublimation pressure (283.15 K)	vapor or sublimation pressure (293.15 K)	vapor or sublimation pressure (303.15 K)	Structure (SMILES)
157.2 ± 1.6 kPa	221.8 ± 1.8 kPa	303.4 ± 2.1 kPa	405.2 ± 2.6 kPa	CC(C)C [2-methylpropane]
475 ± 1.8 kPa	637.8 ± 2.2 kPa	836 ± 2.6 kPa	1078.4 ± 3.2 kPa	CCC [propane]
